In patent publication US20110028566A1, “COMPOSITIONS AND PRODUCTS CONTAINING CYCLOALIPHATIC DIOL ANTIMICROBIAL AGENTS AND METHODS OF USING THE COMPOSITIONS AND PRODUCTS” (EASTMAN CHEMICAL COMPANY, priority 2009, published 2011):

How the values were obtained:
Format in all cases: cell-based
Aspergillus niger = test: Microbial challenge testing in BPW; conditions: BPW, w/v % in label, average of replicates; for Grade code, A. niger, 3 Day: 3 days incubation; for Grade code, A. niger, 13 Day: 13 days incubation; for Grade code, A. niger, 30 Day: 30 days incubation
How it was run: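 A. niger grown in TSB with 1% dextrose and on SDA at 22° C.±2° C; spores harvested, filtered, adjusted to 1.0×10^8 and checked by hemocytometer.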

Trichophyton rubrum = test: Challenge testing with pathogenic fungi in SDB; conditions: w/v % in label, INT respiratory dye; for Grade code, Pathogenic Fungi, T. ruburm, 3 Days: 3 days incubation; for Grade code, Pathogenic Fungi, T. ruburm, 14 Days: 14 days incubation; for Grade code, Pathogenic Fungi, T. ruburm, 30 Days: 30 days incubation
Description: (§1) Both M. canis and Trichophyton rubrum were grown on Sabouraud dextrose broth (SDB) (pH 5.6), while Malassezia fufur was grown in SDB supplemented with 2% (v/v) of olive oil and 0.2% (v/v) of Tween™ 80; incubation was at 22° C.±2° C. under continuous agitation by stirring for 10 days. The organisms were grown to a cell concentration of between 10^3 and 10^4 cfu/mL. The actual inoculation cell concentration of these challenges was determined by diluting in sterile buffer water and (spread-plate method) plating for enumeration.
(§2) Challenge organisms were used to inoculate tubes containing each test material (CHDM, etc) or combination of test materials, at concentrations given in Table 5, in SDB (or for M. furfur, in SDB supplemented with olive oil and Tween™ 80). The inoculations were in the amount of 1.5 mL aliquots of each culture with static incubation at 22±2° C. Subcultures were made after 3-, 14-, and 30-days incubation. All challenges were conducted in triplicate. In the case of M. canis, the growth response was assessed by the visual presence or absence of growth in the tubes; in the case of T. rubrum, a respiratory dye (0.2% w/v aqueous INT solution: 2-(4-iodophenyl)-3-(4-nitrophenyl)-5-phenyl tetrazolium chloride) was added to the tubes, turning red if the organism was viable; and, finally, in the case of M. furfur, the growth response was assessed based upon visible pellicle formation in the tubes at the meniscus. The fungal growth in each tube was assigned a grade code as follows:
(§3) 0: No visible growth 1: Some growth in tube 2: Moderate growth in tube 3: Good growth in tube 4: Extreme growth in tube
(§4) All test material concentrations are given as w/v %. The grade codes given are the average of the grade codes for duplicate or triplicate samples.
(§5) Table 5 compares the antimicrobial activity of 1,4-CHDM (AB) alone to 1,4-CHDM in combination with EDTA, phenoxyethanol (PE), and caprylyl glycol (CG). CHDM at 0.5% was tested with EDTA, and at 1.25 and 2.5% with EDTA, PE, and CG. (Note that the combination of CHDM with only EDTA was not tested against pathogenic fungi.) Results are also given for EDTA, PE, and CG alone, so the result for each mixture can be compared to the antimicrobial activity for each of its components individually. […] Possible synergies were determined by treating the grade code as an estimate of the log of the microbial count (log of cfu/mL). Log reductions can then be estimated by subtracting each grade code from the grade code for broth alone (grade code 5, except for the pathogenic fungi).

Malassezia furfur = test: Challenge testing with pathogenic fungi in SDB; conditions: SDB with olive oil and Tween 80, w/v % in label, pellicle formation; for Grade code, Pathogenic Fungi, M. furfur, 3 Days: 3 days incubation; for Grade code, Pathogenic Fungi, M. furfur, 14 Days: 14 days incubation; for Grade code, Pathogenic Fungi, M. furfur, 30 Days: 30 days incubation
Description: as §1, §2, §3, §4, §5

Microsporum canis = test: Challenge testing with pathogenic fungi in SDB; conditions: w/v % in label, visual growth in tubes; for Grade code, Pathogenic Fungi, M. canis, 3 Days: 3 days incubation; for Grade code, Pathogenic Fungi, M. canis, 14 Days: 14 days incubation; for Grade code, Pathogenic Fungi, M. canis, 30 Days: 30 days incubation
Description: as §1, §2, §3, §4, §5

Row | SMILES | Grade code, A. niger, 3 Day (Aspergillus niger) | Grade code, A. niger, 13 Day (Aspergillus niger; listed as 0.25% CG) | Grade code, A. niger, 13 Day (Aspergillus niger; listed as 0.5% CG) | Grade code, A. niger, 30 Day (Aspergillus niger; listed as 0.25% CG) | Grade code, A. niger, 30 Day (Aspergillus niger; listed as 0.5% CG) | Grade code, Pathogenic Fungi, T. ruburm, 3 Days (Trichophyton rubrum) | Grade code, Pathogenic Fungi, T. ruburm, 14 Days (Trichophyton rubrum) | Grade code, Pathogenic Fungi, T. ruburm, 30 Days (Trichophyton rubrum) | Grade code, Pathogenic Fungi, M. furfur, 3 Days (Malassezia furfur) | Grade code, Pathogenic Fungi, M. furfur, 14 Days (Malassezia furfur) | Grade code, Pathogenic Fungi, M. furfur, 30 Days (Malassezia furfur) | Grade code, Pathogenic Fungi, M. canis, 3 Days (Microsporum canis) | Grade code, Pathogenic Fungi, M. canis, 14 Days (Microsporum canis) | Grade code, Pathogenic Fungi, M. canis, 30 Days (Microsporum canis) | Grade code, A. niger, 13 Day (Aspergillus niger) | Grade code, A. niger, 30 Day (Aspergillus niger)
1 | CCCCCCC(O)CO (centres unmarked) [CG, 1,2-octanediol] | 4 | 4 | 2 (Countable (11 to 100 colonies)) | 4 | 1 (Countable (1 to 10 colonies)) | 0 | 0 | 0 | 0 | 0 | 0 | 0 | 0 | 0 | – | –
2 | O=C([O-])CN(CCN(CC(=O)O)CC(=O)O)CC(=O)[O-].[Na+].[Na+] [EDTA, ethylenediaminetetraacetic acid disodium salt] | 4 | – | – | – | – | 1 | 0 | 0 | 0 | 0 | 0 | 2 | 1 | 0 | 4 | 4
